Measured values as given in patent US20220380319A1 (Bial - R&D Investments, S.A., priority 2019, published 2022).
Values after ≈ are worked out from the molar mass of the structure shown.

Tests used:
acid ceramidase = biological target: T1, acid ceramidase (Homo sapiens, UniProt Q13510); assay: Acid ceramidase inhibition, biochemical fluorescent assay with cell lysates overexpressing acid ceramidase, substrate Rbm14-12; settings: substrate Rbm14-12 6.3 μM
T1 construct: Cell lysates overexpressing acid ceramidase were used as the enzyme source; expressed in transfected cells
T1 sequence (Q13510 22-395): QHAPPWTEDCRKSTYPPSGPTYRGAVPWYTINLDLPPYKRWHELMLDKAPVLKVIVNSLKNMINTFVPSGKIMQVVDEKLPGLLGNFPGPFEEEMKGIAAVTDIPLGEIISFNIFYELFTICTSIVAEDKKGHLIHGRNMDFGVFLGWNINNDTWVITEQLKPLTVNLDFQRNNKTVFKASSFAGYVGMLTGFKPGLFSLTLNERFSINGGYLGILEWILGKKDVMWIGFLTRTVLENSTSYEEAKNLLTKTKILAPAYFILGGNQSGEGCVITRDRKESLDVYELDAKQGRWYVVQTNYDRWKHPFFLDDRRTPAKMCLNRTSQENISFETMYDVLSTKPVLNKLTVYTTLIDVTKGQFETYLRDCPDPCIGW
Procedure, shortened: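 IC50 derived by four-parameter fitting of fluorescence (ex360 nm, em446 nm) produced after 1 hr in methanol/NaIO4/glycine stop buffer, pH 10.6. Reaction: 6.3 μM Rbm14-12, 1 hr RT, following 1 hr RT compound preincubation with 10 μg overexpressing-cell lysate protein in pH 4.5 NaAC/NaCl buffer.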

[1] = Compound solubility in water
[2] = pH 4.5, 1 hr preincubation at RT

| Compound | IC50 (acid ceramidase; pH 4.5) [nM] | solubility [1] [µg/mL] | IC50 (acid ceramidase; [2]) [nM] |
| --- | --- | --- | --- |
| COc1nc2ccc(N3CCOCC3)cc2n1C(=O)NCC1CC1Cc1ccccc1 (stereo not shown) [Example 231a, N-((2-benzylcyclopropyl)methyl)-2-methoxy-6-morpholino-1H-benzo[d]imidazole-1-carboxamide] | 200 to 1000 | 14 (≈ 33.3 µM) |  |
| O=C(NCCOc1ccccc1)n1cnc2ccc(C(F)(F)F)cc21 [Example 46b, N-(2-phenoxyethyl)-6-(trifluoromethyl)-1H-benzo[d]imidazole-1-carboxamide] |  | 0.3 (≈ 0.859 µM) | < 200 |
| COc1nc2cc(N3CCOCC3)ccc2n1C(=O)NCCCOC(F)(F)F [Example 233b, 2-methoxy-5-morpholino-N-(3-(trifluoromethoxy)propyl)-1H-benzo[d]imidazole-1-carboxamide] | 200 to 1000 | 29 (≈ 72.1 µM) |  |
| CC(C)CCNC(=O)n1c(=O)n(C)c2cccnc21 [Example 104, N-iso-Pentyl-1-methyl-2-oxo-1,2-dihydro-3H-imidazo[4,5-b]pyridine-3-carboxamide] |  | 17 (≈ 64.8 µM) | 200 to 1000 |
| O=C(NCCc1ccccc1)n1cnc2ccc(-c3cccnc3)cc21 [Example 10b, N-phenethyl-6-(pyridin-3-yl)-1H-benzo[d]imidazole-1-carboxamide] |  | 0.6 (≈ 1.75 µM) | < 200 |
| CCCCNC(=O)n1cnc2c(C3CCN(C)CC3)cc(C(F)(F)F)cc21 [Example 57, N-Butyl-4-(1-methylpiperidin-4-yl)-6-(trifluoromethyl)-1H-benzo[d]imidazole-1-carboxamide] |  | 24.1 (≈ 63 µM) | < 200 |
| Cn1c(=O)n(C(=O)NCCc2ccccc2)c2ccc(-c3cncnc3)cc21 [Example 32b, 3-methyl-2-oxo-N-phenethyl-5-(pyrimidin-5-yl)-2,3-dihydro-1H-benzo[d]imidazole-1-carboxamide] |  | 0.3 (≈ 0.803 µM) | > 1000 |
| COc1nc2ccc(N3CCOCC3)cc2n1C(=O)NCCCC1(C(F)(F)F)CC1 [Example 183a, 2-Methoxy-6-morpholino-N-(3-(1-(trifluoromethyl)cyclopropyl)propyl)-1H benzo[d]imidazole-1-carboxamide] | < 200 | 15 (≈ 35.2 µM) |  |
| CCC(C)NC(=O)n1c(OC)nc2cc(-c3cncnc3)ccc21 (stereo not shown) [Example 109b, N-(sec-butyl)-2-methoxy-5-(pyrimidin-5-yl)-1H-benzo[d]imidazole-1-carboxamide] |  | 32.4 (≈ 99.6 µM) | > 1000 |
| CC(C)CCNC(=O)n1cnc2c(N3C[C@H](C)O[C@@H](C)C3)cccc21 (stereo in doubt) [Example 168, 4-((2S,6S)-2,6-Dimethylmorpholino)-N-iso-pentyl-1H-benzo[d]imidazole-1-carboxamide] | 200 to 1000 | 11 (≈ 31.9 µM) |  |
| COc1nc2cc(N3CCOCC3)ccc2n1C(=O)NCC1CC1Cc1ccccc1 (stereo not shown) [Example 231b, N-((2-benzylcyclopropyl)methyl)-2-methoxy-5-morpholino-1H-benzo[d]imidazole-1-carboxamide] | < 200 | 13 (≈ 30.9 µM) |  |
| CC(C)OCCNC(=O)n1cnc2ccccc21 [Example 48, N-(2-iso-Propoxyethyl)-1H-benzo[d]imidazole-1-carboxamide] |  | 15.4 (≈ 62.3 µM) | 200 to 1000 |
| CCCCNC(=O)n1cnc2ccccc21 [Example 24, N-Butyl-1H-benzo[d]imidazole-1-carboxamide] |  | 21.9 (≈ 101 µM) | < 200 |
| O=C(NCCc1ccccc1)n1cnc2ncc(C(F)(F)F)cc21 [Example 53, N-Phenethyl-6-(trifluoromethyl)-1H-imidazo[4,5-b]pyridine-1-carboxamide] |  | 4.7 (≈ 14.1 µM) | < 200 |
| CCC(C)CNC(=O)n1c(OC)nc2c(OC)cccc21 (stereo not shown) [Example 117, 2,4-Dimethoxy-N-(2-methylbutyl)-1H-benzo[d]imidazole-1-carboxamide] |  | 23.4 (≈ 80.3 µM) | 200 to 1000 |
| COc1nc2cc(N3CCOCC3)ccc2n1C(=O)NCC1(CC2CC2)CC1 [Example 229b, N-((1-(cyclopropylmethyl)cyclopropyl)methyl)-2-methoxy-5-morpholino-1H-benzo[d]imidazole-1-carboxamide] | < 200 | 9 (≈ 23.4 µM) |  |
| COc1nc2ccc(-c3cccnc3)cc2n1C(=O)NCCc1ccccc1 [Example 30b, 2-methoxy-N-phenethyl-6-(pyridin-3-yl)-1H-benzo[d]imidazole-1-carboxamide] |  | 3.9 (≈ 10.5 µM) | < 200 |
| COc1nc2c(N3CCOCC3)cc(F)cc2n1C(=O)NCCC(C)C [Example 212, 6-Fluoro-N-iso-pentyl-2-methoxy-4-morpholino-1H-benzo[d]imidazole-1-carboxamide] | 200 to 1000 | 8 (≈ 22 µM) |  |

The next lines start with the values.

| IC50 (acid ceramidase; pH 4.5) [nM] | solubility [1] [µg/mL] | IC50 (acid ceramidase; [2]) [nM] | Compound |
| --- | --- | --- | --- |
|  | 2 (≈ 5.71 µM) | 200 to 1000 | CC(C)CCNC(=O)n1cnc2c(N3CCC(F)(F)CC3)cccc21 [Example 143, 4-(4,4-Difluoropiperidin-1-yl)-N-isopentyl-1H-benzo[d]imidazole-1-carboxamide] |
| < 200 | 24 (≈ 57.2 µM) |  | O=C(NCCCc1ccccc1)n1cnc2c(N3CCN(C4COC4)CC3)cccc21 [Example 286, 4-(4-(Oxetan-3-yl)piperazin-1-yl)-N-(3-phenylpropyl)-1H-benzo[d]imidazole-1-carboxamide] |
| < 200 | 12 (≈ 31.8 µM) |  | CN1CCN(c2cccc3c2ncn3C(=O)NCCCc2ccccc2)CC1 [Example 192, 4-(4-Methylpiperazin-1-yl)-N-(3-phenylpropyl)-1H-benzo[d]imidazole-1-carboxamide] |
| 200 to 1000 | 1 (≈ 2.46 µM) |  | CC(C)CCNC(=O)n1cnc2c(N3CCO[C@@H](Cc4ccccc4)C3)cccc21 [Example 174, (S)-4-(2-Benzylmorpholino)-N-iso-pentyl-1H-benzo[d]imidazole-1-carboxamide] |
| 200 to 1000 | 2 (≈ 5.41 µM) |  | CC(C)(C)CCNC(=O)n1cnc2c(N3CCN(C4CC4)CC3)cccc21 [Example 185, 4-(4-Cyclopropylpiperazin-1-yl)-N-(3,3-dimethylbutyl)-1H-benzo[d]imidazole-1-carboxamide] |
|  | 19 (≈ 52 µM) | > 1000 | CNC1CN(c2cccc3c2ncn3C(=O)NCCOc2ccccc2)C1 [Example 354, 4-(3-(Methylamino)azetidin-1-yl)-N-(2-phenoxyethyl)-1H-benzo[d]imidazole-1-carboxamide] |
| < 200 | 9 (≈ 22.8 µM) |  | COc1nc2cnc(N3CCOCC3)cc2n1C(=O)NCCCc1ccccc1 [Example 213a, 2-Methoxy-6-morpholino-N-(3-phenylpropyl)-1H-imidazo[4,5-c]pyridine-1-carboxamide] |
| < 200 | 21 (≈ 53.6 µM) |  | CN(C)C1CCN(c2cccc3c2ncn3C(=O)NCCCc2ccccc2)C1 (stereo not shown) [Example 264, 4-(3-(Dimethylamino)pyrrolidin-1-yl)-N-(3-phenylpropyl)-1H-benzo[d]imidazole-1-carboxamide] |
| 200 to 1000 | 20 (≈ 54.1 µM) |  | CC(C)CCNC(=O)n1cnc2c(N3CCN(C4CC4)C(=O)C3)cccc21 [Example 206, 4-(4-Cyclopropyl-3-oxopiperazin-1-yl)-N-isopentyl-1H-benzo[d]imidazole-1-carboxamide] |
| < 200 | 26 (≈ 72.7 µM) |  | CC(=O)N1CCN(c2cccc3c2ncn3C(=O)NCCC(C)C)CC1 [Example 203, 4-(4-Acetylpiperazin-1-yl)-N-isopentyl-1H-benzo[d]imidazole-1-carboxamide] |
|  | 27 (≈ 68.8 µM) | 200 to 1000 | COc1nc2c(C3CCN(C)CC3)cccc2n1C(=O)NCCc1ccccc1 [Example 33, 2-Methoxy-4-(1-methylpiperidin-4-yl)-N-phenethyl-1H-benzo[d]imidazole-1-carboxamide] |
|  | 22.9 (≈ 63 µM) | < 200 | CN1CCN(c2ccc3ncn(C(=O)NCCc4ccccc4)c3c2)CC1 [Example 15b, 6-(4-Methylpiperazin-1-yl)-N-phenethyl-1H-benzo[d]imidazole-1-carboxamide] |
|  | 35 (≈ 83.4 µM) | < 200 | CN1CCC2(CC1)CN(c1cccc3c1ncn3C(=O)NCCOc1ccccc1)C2 [Example 350, 4-(7-Methyl-2,7-diazaspiro[3.5]nonan-2-yl)-N-(2-phenoxyethyl)-1H-benzo[d]imidazole-1-carboxamide] |
|  | 21.1 (≈ 65 µM) | < 200 | CCOc1nc2cccnc2n1C(=O)NCCCc1ccccc1 [Example 91b, 2-ethoxy-N-(3-phenylpropyl)-3H-imidazo[4,5-b]pyridine-3-carboxamide] |
|  | 17.7 (≈ 59.9 µM) | < 200 | O=C(NCCOCc1ccccc1)n1cnc2ccccc21 [Example 42, N-(2-(Benzyloxy)ethyl)-1H-benzo[d]imidazole-1-carboxamide] |
| < 200 | 24 (≈ 56 µM) |  | CN1CCN(C2CN(c3cccc4c3ncn4C(=O)NCC#Cc3ccccc3)C2)CC1 [Example 332, 4-(3-(4-Methylpiperazin-1-yl)azetidin-1-yl)-N-(3-phenylprop-2-yn-1-yl)-1H-benzo[d]imidazole-1-carboxamide] |
| < 200 | 30 (≈ 76 µM) |  | CC(C)C#CCNC(=O)n1cnc2c(N3CCN(C4CN(C)C4)CC3)cccc21 [Example 299, 4-(4-(1-Methylazetidin-3-yl)piperazin-1-yl)-N-(4-methylpent-2-yn-1-yl)-1H-benzo[d]imidazole-1-carboxamide] |
